Results reported in patent publication US20090074815A1, “Immunomodulator Compounds as Vaccine Enhancers” (SCICLONE PHARMACEUTICALS, INC., priority 2005, published 2009).
Where two headings read alike, the source gives them in different places. Marks after values point to notes of the source that are not given here.

How the values were obtained:
[1] = system: IL-10 production by OvA-stimulated splenocytes; assay: OvA-stimulated production of IL-10 by splenocytes of OvA-immunized mice
Procedure: The OvA was administered subcutaneously to the crest in a volume of 200 μl. Mice were immunized on day 1 with OvA in complete Freund's adjuvant (CFA; Sigma) and on day 15 with the antigen in incomplete Freund's adjuvant (IFA; Sigma). The immune response was analyzed on day 29. Mice were also immunized with 10 μg/mouse of OvA using Alum as an adjuvant.
Thymuses and spleens from mice of each treatment group were pooled, and then minced with scissors. The minced tissues were suspended in sterile PBS to form cell suspensions, filtered through a double gauze layer and centrifuged. Cells were washed twice with PBS, re-suspended in RPMI-1640 (Sigma) with 2.0 mM of L-glutamine, 50 μM of mercaptoethanol, and 10 μg/ml of gentamycin (complete medium); and cell counts were made. (The splenocyte suspension was washed with a 0.86% solution of NH4Cl to pre-lyse erthrocytes.)
Assessment of Mitogen- and Antigen-Induced Production of Cytokines: Thymic cells (1×10^6/well) in complete medium with 2% FCS were stimulated with ConA (0, 1, and 2 μg/ml). Splenocytes (1×10^6/well) in complete medium with 5% FCS were stimulated with ConA (0, 1, and 5 μg/ml) and with OvA (0-100 μg/ml). […] Supernatants from OvA-stimulated cultures were collected after 72 hours. Supernatants from both cultures were frozen, and kept at 20° C. Concentrations of IL-2, IL-4, IL-10, IL-12R40 and IFNγ in the supernatants were determined by solid-phase EIA with EIA Expansion Kits, available from BD Biosciences (formerly Pharmingen), in accordance with the manufacturer's instructions.

bone marrow cells = assay: Expression of Thy1 marker by bone marrow cells (flow cytometry) after SCV-07 treatment; assay type: in vivo, mice
From the text: Materials and Methods: Eighteen (18) to twenty (20) gram (g) male mice, purchased from the Rappolovo Animal Facility, Russia, were used in the studies described below. C57BL/6 (B6) mice were used to evaluate the effect of SCV-07 in non-immunized mice. CBAxC57BL/6 (F1) mice were used for studies of the effects of SCV-07 on the antigen-specific immune response. Mice were kept under the standard animal facility conditions and were provided with a standard diet and water ad libitum. Each treatment group included 4-5 mice. […] A suspension containing filling agents alone, which corresponded to the maximum amount of filling agents in the doses of SCV-07 administered to experimental animals, was used a control. Thigh bones were removed from treated mice under aseptic conditions, and the medullary cavities were […] washed with PBS. Fragments of the bone marrow were minced by passing the tissue through a syringe needle. The resulting cell suspension was filtered through a double gauze layer and washed in PBS. After erythrocytes were lysed, the cells were counted and transferred to flat bottom culture plates. Due to an almost complete lack of spontaneous proliferation, the absolute values of proliferation, which were expressed as counts per minute (CPM), were determined and the Con A-induced proliferation of thymic cells from animals of different groups were compared. Analysis by Flow Cytometry: […] Immunomodulatory Activity of SCV-07 After Oral Administration: Thy1-positive lymphocytes, the precursors of T-cells in the bone marrow, increased in a dose-dependent manner in mice after treatment with SCV-07 per os. These increases were analogous to those observed in mice which received SCV-07 i.p (Table 2).

HBsAg = assay type: in vivo, human; conditions: for Antibodies to HBsAg not detected, % / Antibodies to HBsAg not detected, Abs / Protective titer against HBsAg (>10 mMU/mL), % / Protective titer against HBsAg (>10 mMU/mL), Abs: one month after the end of vaccination; for concentration of antibodies to HBsAg in the blood: one month after immunization
[2] = OvA/FA, 0.1 μg/kg i/p, OvA 10 μg/ml
[3] = OvA/FA, 0.1 μg/kg i/p, OvA 25 μg/ml
[4] = OvA/FA, 0.1 μg/kg i/p, OvA 50 μg/ml
[5] = OvA/FA, 0.1 μg/kg i/p, OvA 100 μg/ml
[6] = OvA/FA, 1.0 μg/kg i/p, OvA 10 μg/ml
[7] = OvA/FA, 1.0 μg/kg i/p, OvA 25 μg/ml
[8] = OvA/FA, 1.0 μg/kg i/p, OvA 50 μg/ml
[9] = OvA/FA, 1.0 μg/kg i/p, OvA 100 μg/ml

SMILES: N[C@H](CCC(=O)N[C@@H](Cc1c[nH]c2ccccc12)C(=O)O)C(=O)O [SCV-07, γ-D-glutamyl-L-tryptophan]
- Production of IL-10 by splenocytes ([1]; OvA/Alum, 1.0 μg/kg per os, OvA 25 μg/ml): 1957.2 pg/mL
- Production of IL-10 by splenocytes ([1]; OvA/Alum, 1.0 μg/kg per os, OvA 50 μg/ml): 1920.4 pg/mL
- Production of IL-10 by splenocytes ([1]; OvA/Alum, 1.0 μg/kg per os, OvA 100 μg/ml): 1898.4 pg/mL
- Production of IL-10 by splenocytes ([1]; OvA/Alum, 10.0 μg/kg per os, OvA 0 μg/ml): 816.4 pg/mL
- Production of IL-10 by splenocytes ([1]; OvA/Alum, 10.0 μg/kg per os, OvA 10 μg/ml): 1127.5 pg/mL
- Production of IL-10 by splenocytes ([1]; OvA/Alum, 10.0 μg/kg per os, OvA 25 μg/ml): 1272.5 pg/mL
- Production of IL-10 by splenocytes ([1]; OvA/Alum, 10.0 μg/kg per os, OvA 50 μg/ml): 1608.4 pg/mL
- Production of IL-10 by splenocytes ([1]; OvA/Alum, 10.0 μg/kg per os, OvA 100 μg/ml): 1780.1 pg/mL
- Production of IL-10 by splenocytes ([1]; OvA/FA, 0.1 μg/kg i/p, OvA 0 μg/ml): 785.1 pg/mL
- Production of IL-10 by splenocytes [1, 2]: 989.4 pg/mL
- Production of IL-10 by splenocytes, % (% of control) [1, 2]: 126.0%
- Production of IL-10 by splenocytes [1, 3]: 1234.3 pg/mL
- Production of IL-10 by splenocytes, % (% of control) [1, 3]: 157.2%
- Production of IL-10 by splenocytes [1, 4]: 1194.2 pg/mL
- Production of IL-10 by splenocytes, % (% of control) [1, 4]: 152.1%
- Production of IL-10 by splenocytes [1, 5]: 1502.4 pg/mL
- Production of IL-10 by splenocytes, % (% of control) [1, 5]: 191.4%
- Production of IL-10 by splenocytes ([1]; OvA/FA, 0.1 μg/kg per os, OvA 0 μg/ml): 702.5 pg/mL
- Production of IL-10 by splenocytes ([1]; OvA/FA, 0.1 μg/kg per os, OvA 10 μg/ml): 958.9 pg/mL
- Production of IL-10 by splenocytes ([1]; OvA/FA, 0.1 μg/kg per os, OvA 25 μg/ml): 1478.2 pg/mL
- Production of IL-10 by splenocytes ([1]; OvA/FA, 0.1 μg/kg per os, OvA 50 μg/ml): 1739.2 pg/mL
- Production of IL-10 by splenocytes ([1]; OvA/FA, 0.1 μg/kg per os, OvA 100 μg/ml): 1895.4 pg/mL
- Production of IL-10 by splenocytes ([1]; OvA/FA, 1.0 μg/kg i/p, OvA 0 μg/ml): 457.4 pg/mL
- Production of IL-10 by splenocytes [1, 6]: 813.4 pg/mL
- Production of IL-10 by splenocytes, % (% of control) [1, 6]: 177.8%
- Production of IL-10 by splenocytes [1, 7]: 774.1 pg/mL
- Production of IL-10 by splenocytes, % (% of control) [1, 7]: 169.2%
- Production of IL-10 by splenocytes [1, 8]: 852.4 pg/mL
- Production of IL-10 by splenocytes, % (% of control) [1, 8]: 186.4%
- Production of IL-10 by splenocytes [1, 9]: 963.8 pg/mL
- Production of IL-10 by splenocytes, % (% of control) [1, 9]: 210.7%
- Production of IL-10 by splenocytes ([1]; OvA/FA, 1.0 μg/kg per os, OvA 0 μg/ml): 407.6 pg/mL
- Production of IL-10 by splenocytes ([1]; OvA/FA, 1.0 μg/kg per os, OvA 10 μg/ml): 953.1 pg/mL
- Production of IL-10 by splenocytes ([1]; OvA/FA, 1.0 μg/kg per os, OvA 25 μg/ml): 984.1 pg/mL
- Production of IL-10 by splenocytes ([1]; OvA/FA, 1.0 μg/kg per os, OvA 50 μg/ml): 1120.7 pg/mL
- Production of IL-10 by splenocytes ([1]; OvA/FA, 1.0 μg/kg per os, OvA 100 μg/ml): 1292.2 pg/mL
- Production of IL-10 by splenocytes ([1]; OvA/FA, 10.0 μg/kg per os, OvA 0 μg/ml): 627.3 pg/mL
- Production of IL-10 by splenocytes ([1]; OvA/FA, 10.0 μg/kg per os, OvA 10 μg/ml): 831.6 pg/mL
- Production of IL-10 by splenocytes ([1]; OvA/FA, 10.0 μg/kg per os, OvA 25 μg/ml): 1092.7 pg/mL
- Production of IL-10 by splenocytes ([1]; OvA/FA, 10.0 μg/kg per os, OvA 50 μg/ml): 1356.1 pg/mL
- Production of IL-10 by splenocytes ([1]; OvA/FA, 10.0 μg/kg per os, OvA 100 μg/ml): 1569.3 pg/mL
- Thy-1 positive cells, % (bone marrow cells; 0.1 μg/kg per os): 12.9 ± 1.2%
- Thy-1 positive cells, % (bone marrow cells; 1.0 μg/kg i/p): 15.4 ± 0.1%
- Thy-1 positive cells, % (bone marrow cells; 1.0 μg/kg per os): 14.9 ± 1.3%
- Thy-1 positive cells, % (bone marrow cells; 10.0 μg/kg per os): 16.0 ± 0.7%
- Thy-1 positive cells, % (bone marrow cells; 100.0 μg/kg per os): 16.0 ± 1.2%
- Antibodies to HBsAg not detected, % (HBsAg; Group 2, SCV-07, n = 32): 3.1** %
- Antibodies to HBsAg not detected, Abs (HBsAg; Group 2, SCV-07, n = 32): 1
- Protective titer against HBsAg (>10 mMU/mL), % (HBsAg; Group 2, SCV-07, n = 32): 96.9%
- Protective titer against HBsAg (>10 mMU/mL), Abs (HBsAg; Group 2, SCV-07, n = 32): 31
- Antibodies to HBsAg not detected, % (HBsAg; Group 3, healthy, n = 33): 6.1* %
- Antibodies to HBsAg not detected, Abs (HBsAg; Group 3, healthy, n = 33): 2
- Protective titer against HBsAg (>10 mMU/mL), % (HBsAg; Group 3, healthy, n = 33): 93.9%
- Protective titer against HBsAg (>10 mMU/mL), Abs (HBsAg; Group 3, healthy, n = 33): 31
- concentration of antibodies to HBsAg in the blood (HBsAg; healthy subjects (Group III)): 253.6 MU/L
- concentration of antibodies to HBsAg in the blood (HBsAg; immunodeficient patients who received SCV-07 at the time of vaccination): 263.3 MU/L
